Experimental data from PubChem BioAssay (NCI).
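GI50: concentration for 50% inhibition of growth. Definition used: TGI = concentration required for complete inhibition of growth.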

Assays:
Assay in all cases: NCI anticancer screen, dose series, 384-well format
SN12C renal = system: SN12C renal
PC-3 prostate = system: PC-3 prostate
KM12 colon = system: KM12 colon
SK-MEL-5 melanoma = system: SK-MEL-5 melanoma
HCC-2998 colon = system: HCC-2998 colon
HOP-92 NSCLC = system: HOP-92 NSCLC
NCI-H322M lung = system: NCI-H322M lung
M14 melanoma = system: M14 melanoma
SF-539 CNS = system: SF-539 CNS
SR leukemia = system: SR leukemia
NCI-H23 lung = system: NCI-H23 lung
IGROV1 ovarian = system: IGROV1 ovarian
RXF 393 renal = system: RXF 393 renal
CCRF-CEM leukemia = system: CCRF-CEM leukemia
MALME-3M melanoma = system: MALME-3M melanoma
NCI-H226 lung = system: NCI-H226 lung
MOLT-4 leukemia = system: MOLT-4 leukemia
BT-549 breast = system: BT-549 breast
T-47D breast = system: T-47D breast
SK-OV-3 ovarian = system: SK-OV-3 ovarian
HCT-15 colon = system: HCT-15 colon
MDA-MB-231 breast = system: MDA-MB-231 breast
SK-MEL-28 melanoma = system: SK-MEL-28 melanoma
HS 578T breast = system: HS 578T breast
SNB-75 CNS = system: SNB-75 CNS
EKVX NSCLC = system: EKVX NSCLC
A549 NSCLC = system: A549 NSCLC
SNB-19 CNS = system: SNB-19 CNS
HL-60(TB) leukemia = system: HL-60(TB) leukemia
TK-10 renal = system: TK-10 renal
MDA-MB-435 melanoma = system: MDA-MB-435 melanoma
SF-268 CNS = system: SF-268 CNS
NCI-H460 NSCLC = system: NCI-H460 NSCLC
HT29 colon = system: HT29 colon
UACC-257 melanoma = system: UACC-257 melanoma
HOP-62 NSCLC = system: HOP-62 NSCLC
U251 glioblastoma = system: U251 glioblastoma
OVCAR-3 ovarian = system: OVCAR-3 ovarian
DU-145 prostate = system: DU-145 prostate
OVCAR-8 ovarian = system: OVCAR-8 ovarian
UACC-62 melanoma = system: UACC-62 melanoma
RPMI-8226 leukemia = system: RPMI-8226 leukemia

Compound: COc1ccc(F)c(F)c1C(=O)c1cnc(NC2CCN(S(C)(=O)=O)CC2)nc1N
- GI50 (SN12C renal): 139 nM
- TGI (SN12C renal): 681 nM
- GI50 (PC-3 prostate): 284 nM
- TGI (PC-3 prostate): 2130 nM
- GI50 (KM12 colon): 108 nM
- TGI (KM12 colon): 456 nM
- GI50 (SK-MEL-5 melanoma): 82 nM
- TGI (SK-MEL-5 melanoma): 609 nM
- GI50 (HCC-2998 colon): 289 nM
- TGI (HCC-2998 colon): 1910 nM
- GI50 (HOP-92 NSCLC): 310 nM
- TGI (HOP-92 NSCLC): > 100000 nM
- GI50 (NCI-H322M lung): 215 nM
- TGI (NCI-H322M lung): 602 nM
- GI50 (M14 melanoma): 346 nM
- TGI (M14 melanoma): 1640 nM
- GI50 (SF-539 CNS): 137 nM
- TGI (SF-539 CNS): 501 nM
- GI50 (SR leukemia): 15.7 nM
- TGI (SR leukemia): 39 nM
- GI50 (NCI-H23 lung): 140 nM
- TGI (NCI-H23 lung): 774 nM
- GI50 (IGROV1 ovarian): 222 nM
- TGI (IGROV1 ovarian): > 100000 nM
- GI50 (RXF 393 renal): 159 nM
- TGI (RXF 393 renal): 345 nM
- GI50 (CCRF-CEM leukemia): 72 nM
- TGI (CCRF-CEM leukemia): 234 nM
- GI50 (MALME-3M melanoma): 379 nM
- TGI (MALME-3M melanoma): 2000 nM
- GI50 (NCI-H226 lung): 164 nM
- TGI (NCI-H226 lung): 753 nM
- GI50 (MOLT-4 leukemia): 91.2 nM
- TGI (MOLT-4 leukemia): 396 nM
- GI50 (BT-549 breast): 44.1 nM
- TGI (BT-549 breast): 434 nM
- GI50 (T-47D breast): 306 nM
- TGI (T-47D breast): > 100000 nM
- GI50 (SK-OV-3 ovarian): 1030 nM
- TGI (SK-OV-3 ovarian): > 100000 nM
- GI50 (HCT-15 colon): 187 nM
- TGI (HCT-15 colon): > 100000 nM
- GI50 (MDA-MB-231 breast): 201 nM
- TGI (MDA-MB-231 breast): 3700 nM
- GI50 (SK-MEL-28 melanoma): 161 nM
- TGI (SK-MEL-28 melanoma): 1580 nM
- GI50 (HS 578T breast): 206 nM
- TGI (HS 578T breast): 492 nM
- GI50 (SNB-75 CNS): 86.4 nM
- TGI (SNB-75 CNS): 1730 nM
- GI50 (EKVX NSCLC): 424 nM
- TGI (EKVX NSCLC): 3160 nM
- GI50 (A549 NSCLC): 169 nM
- TGI (A549 NSCLC): > 100000 nM
- GI50 (SNB-19 CNS): 348 nM
- TGI (SNB-19 CNS): > 100000 nM
- GI50 (HL-60(TB) leukemia): 15.8 nM
- TGI (HL-60(TB) leukemia): 125 nM
- GI50 (TK-10 renal): 304 nM
- TGI (TK-10 renal): > 100000 nM
- GI50 (MDA-MB-435 melanoma): 251 nM
- TGI (MDA-MB-435 melanoma): 1600 nM
- GI50 (SF-268 CNS): 129 nM
- TGI (SF-268 CNS): 361 nM
- GI50 (NCI-H460 NSCLC): 30.2 nM
- TGI (NCI-H460 NSCLC): 162 nM
- GI50 (HT29 colon): 206 nM
- TGI (HT29 colon): 2050 nM
- GI50 (UACC-257 melanoma): 1030 nM
- TGI (UACC-257 melanoma): 2620 nM
- GI50 (HOP-62 NSCLC): 135 nM
- TGI (HOP-62 NSCLC): 466 nM
- GI50 (U251 glioblastoma): 278 nM
- TGI (U251 glioblastoma): > 100000 nM
- GI50 (OVCAR-3 ovarian): 305 nM
- TGI (OVCAR-3 ovarian): 1450 nM
- GI50 (DU-145 prostate): 211 nM
- TGI (DU-145 prostate): 977 nM
- GI50 (OVCAR-8 ovarian): 144 nM
- TGI (OVCAR-8 ovarian): 917 nM
- GI50 (UACC-62 melanoma): 138 nM
- TGI (UACC-62 melanoma): 453 nM
- GI50 (RPMI-8226 leukemia): 20.9 nM
- TGI (RPMI-8226 leukemia): 124 nM
